From article PMC6383986, “Fragment-Based Covalent Ligand Screening Enables Rapid Discovery of Inhibitors for the RBR E3 Ubiquitin Ligase HOIP” (Journal of the American Chemical Society, 2019)
“Also recorded” adds a separate entry of the source.

Molecular target: T1, HOIP RBR domain (Homo sapiens, UniProt Q96EP0)
T1 construct: made in house; host or cells: E. coli BL21-GOLD(DE3)
T1 sequence (Q96EP0 697-1072): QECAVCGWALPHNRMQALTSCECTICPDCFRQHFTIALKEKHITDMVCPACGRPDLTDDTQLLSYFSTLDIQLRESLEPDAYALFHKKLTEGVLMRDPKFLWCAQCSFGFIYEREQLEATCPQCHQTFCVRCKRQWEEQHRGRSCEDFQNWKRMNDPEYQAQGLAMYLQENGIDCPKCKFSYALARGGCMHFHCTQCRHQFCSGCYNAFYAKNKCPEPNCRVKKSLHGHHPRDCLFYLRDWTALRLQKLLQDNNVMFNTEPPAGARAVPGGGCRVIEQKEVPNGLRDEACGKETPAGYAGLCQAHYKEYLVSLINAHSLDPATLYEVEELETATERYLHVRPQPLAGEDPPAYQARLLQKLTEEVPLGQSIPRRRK
Experiment: Fluorescence-based ubiquitin thioester transfer assay
Type: biochemical
Conditions: HOIP RBR prelabeled with compound; E2 UbcH7
Method: overnight, and further purified by size-exclusion chromatography (Superdex 75/ÄKTA purifier).
The appropriate fractions were concentrated to 4 mL in a 3.5 kDa MWCO protein concentrator (Merck). The protein concentration was measured on a Nanodrop UV spectrophotometer (absorbance at 650 nm) as 19 µM and corroborated by SDS PAGE. Labelling was confirmed by protein LC-MS (Supplementary Figure S10). The labelled protein was aliquoted, flash frozen and […]
Supplementary Figure S10. TIC traces of the deconvoluted protein masses of the M1C ubiquitin mutant (M1C Ub) and the AlexaFluor647 labelled M1C ubiquitin mutant (M1C UbA647).
Formation of the HOIP RBR-(5) conjugate
The HOIP RBR domain (7.5 µM) was incubated (Eppendorf Thermomixer) with inhibitor (5) (750 µM, 1.5% DMSO) in 50 mM HEPES, 150 mM NaCl, pH 7.5 buffer at 600 rpm, 23 °C for 18 h. […] The protein concentration was measured on Nanodrop UV spectrophotometer (absorbance at 280 nm), and the protein was flash frozen in liquid nitrogen […]
(10 min), HOIP RBR or HOIP-RBR-(5) conjugate (5 min), C-terminally His6-tagged ubiquitin (10 min). […] The aliquots were analyzed by SDS PAGE and the gels scanned at 700 nm (LICOR Odyssey CLx) using auto-adjustment of the fluorescence intensity, then stained with Coomassie (Figure 4B and Supplementary Figure S11). […]

COC(=O)/C=C/CNC(=O)c1cc2c([nH]c1=O)CCC2 [Compound 5]
formation of E3~Ub thioester / loading of ubiquitin onto HOIP RBR: inhibits formation of the E3∼Ub thioester intermediate; also recorded: effectively prevented the loading of ubiquitin onto the E3
